Source: patent US8153627B2, “Quinazoline linked pyrrolo[2,1-C][1, 4]benzodiazepine hybrids as potential anticancer agents and process for the preparation thereof” (Council of Scientific & Industrial Research, priority 2008, dated 2012)

Legend:
UACC-257 = assay: Cytotoxicity SRB assay, UACC-257; type: cell-based, human; conditions: Melanoma UACC-257, 48 h exposure
Method: (§1) 5a, 5c and 5d was evaluated for in vitro anticancer activity against sixty human tumor cells derived from nine cancer types leukemia, non-small-cell lung, colon, CNS, melanoma, ovarian, prostate, and breast cancer) as shown in (Table 1 and 2). For the compound, dose response curves for each cell line were measured at a minimum of five concentrations at 10 fold dilutions. A protocol of 48 h continuous drug exposure was used and a sulforhodamine B (SRB) protein assay was used to estimate cell viability or growth. The concentration causing 50% cell growth inhibition (GI50), total cell growth inhibition (TGI 0% growth) and 50% cell death (LC50, −50% growth) compared with the control was calculated.

SW-620 = assay: Cytotoxicity SRB assay, SW-620; type: cell-based, human; conditions: Colon SW-620, 48 h exposure
Method: as §1

ACHN = assay: Cytotoxicity SRB assay, ACHN; type: cell-based, human; conditions: Renal ACHN, 48 h exposure
Method: as §1

UO-31 = assay: Cytotoxicity SRB assay, UO-31; type: cell-based, human; conditions: Renal UO-31, 48 h exposure
Method: as §1

MDA-MB-231/ATCC = assay: Cytotoxicity SRB assay, MDA-MB-231/ATCC; type: cell-based, human; conditions: Breast MDA-MB-231/ATCC, 48 h exposure
Method: as §1

SK-MEL-5 = assay: Cytotoxicity SRB assay, SK-MEL-5; type: cell-based, human; conditions: Melanoma SK-MEL-5, 48 h exposure
Method: as §1

LOX IMVI = assay: Cytotoxicity SRB assay, LOX IMVI; type: cell-based, human; conditions: Melanoma LOX IMVI, 48 h exposure
Method: as §1

M14 = assay: Cytotoxicity SRB assay, M14; type: cell-based, human; conditions: Melanoma M14, 48 h exposure
Method: as §1

786-0 = assay: Cytotoxicity SRB assay, 786-0; type: cell-based, human; conditions: Renal 786-0, 48 h exposure
Method: as §1

RPMI-8226 = assay: Cytotoxicity SRB assay, RPMI-8226; type: cell-based, human; conditions: Leukemia RPMI-8226, 48 h exposure
Method: as §1

U251 = assay: Cytotoxicity SRB assay, U251; type: cell-based, human; conditions: CNS U251, 48 h exposure
Method: as §1

HCT-116 = assay: Cytotoxicity SRB assay, HCT-116; type: cell-based, human; conditions: Colon HCT-116, 48 h exposure
Method: as §1

MALME-3M = assay: Cytotoxicity SRB assay, MALME-3M; type: cell-based, human; conditions: Melanoma MALME-3M, 48 h exposure
Method: as §1

SF-539 = assay: Cytotoxicity SRB assay, SF-539; type: cell-based, human; conditions: CNS SF-539, 48 h exposure
Method: as §1

CCRF-CEM = assay: Cytotoxicity SRB assay, CCRF-CEM; type: cell-based, human; conditions: Leukemia CCRF-CEM, 48 h exposure
Method: as §1

UACC-62 = assay: Cytotoxicity SRB assay, UACC-62; type: cell-based, human; conditions: Melanoma UACC-62, 48 h exposure
Method: as §1

OVCAR-3 = assay: Cytotoxicity SRB assay, OVCAR-3; type: cell-based, human; conditions: Ovarian OVCAR-3, 48 h exposure
Method: as §1

HL-60 (TB) = assay: Cytotoxicity SRB assay, HL-60 (TB); type: cell-based, human; conditions: Leukemia HL-60 (TB), 48 h exposure
Method: as §1

A498 = assay: Cytotoxicity SRB assay, A498; type: cell-based, human; conditions: Renal A498, 48 h exposure
Method: as §1

NCI-H23 = assay: Cytotoxicity SRB assay, NCI-H23; type: cell-based, human; conditions: Non-small cell lung NCI-H23, 48 h exposure
Method: as §1

NCI-H226 = assay: Cytotoxicity SRB assay, NCI-H226; type: cell-based, human; conditions: Non-small cell lung NCI-H226, 48 h exposure
Method: as §1

HCT-15 = assay: Cytotoxicity SRB assay, HCT-15; type: cell-based, human; conditions: Colon HCT-15, 48 h exposure
Method: as §1

CAKI-1 = assay: Cytotoxicity SRB assay, CAKI-1; type: cell-based, human; conditions: Renal CAKI-1, 48 h exposure
Method: as §1

NCI-H522 = assay: Cytotoxicity SRB assay, NCI-H522; type: cell-based, human; conditions: Non-small cell lung NCI-H522, 48 h exposure
Method: as §1

[1] = tested on: sixty human tumor cells derived from nine cancer types; assay: NCI sixty human tumor cell line screen (SRB), all lines / mean graph midpoints; type: cell-based; conditions: for Log10 LC50 mean graph midpoint (MG_MID): 50% cell death; for Log10 LC50 mean graph midpoint (MG_MID) / Log10 GI50 mean graph midpoint (MG_MID) / Log10 TGI mean graph midpoint (MG_MID): human tumor cell lines, 48 h exposure, SRB; for Log10 TGI mean graph midpoint (MG_MID): total cell growth inhibition
Method: as §1
The mean graph mid points of log10 TGI and log10 LC50 have shown similar pattern to the log10 GI50 mean graph mid points.

NCI/ADR-RES = assay: Cytotoxicity SRB assay, NCI/ADR-RES; type: cell-based, human; conditions: Breast NCI/ADR-RES, 48 h exposure
Method: as §1

[2] = tested on: duplex-form calf thymus DNA (CT-DNA); assay: Thermal denaturation studies with calf thymus DNA; type: binding; conditions: for Change of DNA melting (ΔTm) over incubation time: 0 hr, 18 hr and 36 hr at 37° C.; for ΔTμ (° C.) after incubation at 37° C. for 0 h / ΔTμ (° C.) after incubation at 37° C. for 18 h: [PBD]:[DNA] molar ratio 1:5, CT-DNA 100 μM, ligand 20 μM, pH 7.00
Method: Compounds were subjected to thermal denaturation studies with duplex-form calf thymus DNA (CT-DNA) using an adaptation of a reported procedure. Working solutions in aqueous buffer (10 mM NaH2PO4/Na2HPO4, 1 mM Na2EDTA, pH 7.00+0.01) containing CT-DNA (100 μm in phosphate) and the PBD (20 μm) were prepared by addition of concentrated PBD solutions in DMSO to obtain a fixed [PBD]/[DNA] molar ratio of 1:5. The DNA-PBD solutions were incubated at 37° C. for 0, 18, and 36 h prior to analysis. Samples were monitored at 260 nm using a Beckman DU-7400 spectrophotometer fitted with high performance temperature controller, and heating was applied at 1° C. min^−1 in the 40-90° C. range. DNA helix coil transition temperatures (Tm) were obtained from the maxima in the (dA260)/dT derivative plots. Results are given as the mean±standard deviation from three determinations and are corrected for the effects of DMSO co-solvent using a linear correction term. Drug-induced alterations in DNA melting behaviour are given by: ΔTm=Tm(DNA+PBD)−Tm (DNA alone), where the Tm value for the PBD-free CT-DNA is 69.0±0.01.
The DNA binding activity for these novel C8-linked quinazoline-PBD hybrids has been examined by thermal denaturation studies using calf thymus (CT) DNA. […] Data for 5a-d and DC-81 are included in Table 4 for comparison.

TK-10 = assay: Cytotoxicity SRB assay, TK-10; type: cell-based, human; conditions: Renal TK-10, 48 h exposure
Method: as §1

SMILES	GI50 (UACC-257)	GI50 (SW-620)	GI50 (ACHN)	GI50 (UO-31)	GI50 (MDA-MB-231/ATCC)	GI50 (SK-MEL-5)	GI50 (LOX IMVI)	GI50 (M14)	GI50 (786-0)	GI50 (RPMI-8226)	GI50 (U251)	GI50 (HCT-116)	GI50 (MALME-3M)	GI50 (SF-539)	GI50 (CCRF-CEM)	GI50 (UACC-62)	GI50 (OVCAR-3)	GI50 (HL-60 (TB))	ΔTμ (° C.) after incubation at 37° C. for 0 h [2]	ΔTμ (° C.) after incubation at 37° C. for 18 h [2]	further results
COc1cc2c(cc1OCCCN1CCN(c3ncnc4ccccc34)CC1)N=C[C@@H]1CCCN1C2=O [Compound 5a]	70.9 µM	11.7 µM	43.4 µM	13.2 µM	11.6 µM	10 µM	10 µM	10.1 µM	11.8 µM	10 µM	10 µM	11.9 µM	18.2 µM	12.6 µM	12 µM	10 µM	10 µM	13 µM	9.2 °C	10.4 °C	GI50 (A498): 16.1 µM; GI50 (NCI-H23): 13.9 µM; GI50 (NCI-H226): 10 µM; GI50 (HCT-15): 27.5 µM; GI50 (CAKI-1): 13.6 µM; GI50 (NCI-H522): 10.4 µM; Log10 LC50 mean graph midpoint (MG_MID) [1]: −4.99; Log10 GI50 mean graph midpoint (MG_MID) [1]: −7.68; GI50 ([1]; sixty cell lines in nine cell panels, read-out: GI50 against sixty cell lines in nine cell panels): < 0.02 µM; Log10 TGI mean graph midpoint (MG_MID) [1]: −6.66; GI50 (NCI/ADR-RES): 13.4 µM; Change of DNA melting (ΔTm) over incubation time [2]: gradually increased; GI50 (TK-10): 16.6 µM
COc1cc2c(cc1OCCCCN1CCN(c3ncnc4ccccc34)CC1)N=C[C@@H]1CCCN1C2=O [Compound 5b]	–	–	–	–	–	–	–	–	–	–	–	–	–	–	–	–	–	–	9.7 °C	10.9 °C	–
COc1cc2c(cc1OCCCCCN1CCN(c3ncnc4ccccc34)CC1)N=C[C@@H]1CCCN1C2=O [Compound 5c]	22.9 µM	17.6 µM	22 µM	22.1 µM	19.9 µM	20.9 µM	18.2 µM	14.5 µM	18.4 µM	45 µM	15.8 µM	21 µM	24.2 µM	30.3 µM	32.5 µM	15.1 µM	24.9 µM	65.2 µM	10.3 °C	11.8 °C	GI50 (A498): 20.1 µM; GI50 (NCI-H23): 15.8 µM; GI50 (NCI-H226): 17.8 µM; GI50 (HCT-15): 29.7 µM; GI50 (CAKI-1): 25.8 µM; GI50 (NCI-H522): 65.3 µM; Log10 LC50 mean graph midpoint (MG_MID) [1]: −4.19; Log10 GI50 mean graph midpoint (MG_MID) [1]: −5.68; Log10 TGI mean graph midpoint (MG_MID) [1]: −4.86; GI50 (NCI/ADR-RES): 17.7 µM; Change of DNA melting (ΔTm) over incubation time [2]: gradually increased; GI50 (TK-10): 38.2 µM
COc1cc2c(cc1OCCCCCCN1CCN(c3ncnc4ccccc34)CC1)N=C[C@@H]1CCCN1C2=O [Compound 5d]	15.9 µM	25.9 µM	46.1 µM	15.2 µM	14.2 µM	23.3 µM	15 µM	18.8 µM	14.9 µM	16.8 µM	19.8 µM	14.6 µM	36.2 µM	33.7 µM	13.4 µM	22.5 µM	26.3 µM	19.5 µM	10.6 °C	12.2 °C	GI50 (A498): 22 µM; GI50 (NCI-H23): 22.5 µM; GI50 (NCI-H226): 18.4 µM; GI50 (HCT-15): 18.4 µM; GI50 (CAKI-1): 12.9 µM; GI50 (NCI-H522): 18.3 µM; Log10 LC50 mean graph midpoint (MG_MID) [1]: −4.96; Log10 GI50 mean graph midpoint (MG_MID) [1]: −6.49; Log10 TGI mean graph midpoint (MG_MID) [1]: −5.85; GI50 (NCI/ADR-RES): 18.7 µM; Change of DNA melting (ΔTm) over incubation time [2]: gradually increased; GI50 (TK-10): 31.4 µM
COc1cc2c(cc1O)N=CC1CCCN1C2=O (centres unmarked) [DC-81, reference compound]	–	–	–	–	–	–	–	–	–	–	–	–	–	–	–	–	–	–	0.3 °C	0.7 °C	–
